Test results taken from US7078540B1, “Substituted aromatic-ring compounds, process for producing the same, and use” (Takeda Pharmaceutical Company Limited, priority 1999, dated 2006).

How the values were obtained:
[1] = tested on: TNF-α production by human monocyte cell line P31/FUJ; experiment: Inhibitory activity on TNF-α production in P31/FUJ cells; type: cell-based; conditions: PMA pretreated, LPS 100 ng/ml + interferon-γ 10 U/ml, overnight
Experimental: (§1) Using human monocyte cell line P31/FUJ (JCRB0091, establisher: Fujioka, obtained from the Human Science Research Resource Bank), the percent inhibition of cytokine production by the test compound was measured. The test compound was dissolved in N,N-dimethylformamide to 10 mM and diluted with RPMI-1640 medium to 0.1 mM. Furthermore, it was prepared with a medium to make a final concentration from 10 μM to 10 nM by diluting 10-fold, and added to the culture. The day before the experiment, the cells were prepared with RPMI-1640 medium supplemented with 10% fetal calf serum to a concentration of 2×10^6 cells/ml and plated to a 96-well plate by 2×10^5 cells/0.1 ml per well. The above-mentioned medium (0.1 ml) supplemented with 40 nM phorbol 12-myristate 13-acetate (PMA) was added and the mixture was cultured at 37° C. under 5% CO2/95% air overnight. The cells were washed with the above-mentioned medium to remove PMA and the prepared test compound was added, and LPS and interferon-γ were added to a final concentrations of 100 ng/ml and 10 U/ml, respectively. After culturing overnight, the concentration of TNF-α and IL-1β in the culture supernatant was measured. For quantitative determination of each cytokine, a quantitative determination kit by Amersham was used.

[2] = tested on: NO production by RAW264.7 cells; experiment: Inhibitory activity on NO production in LPS/interferon-γ stimulated RAW264.7 cells; type: cell-based, mouse; conditions: LPS 5 ng/ml + interferon-γ 1 U/ml, overnight, nitrite in culture supernatant
Experimental: Using mouse macrophage cell line, RAW264.7 as iNOS inducible cells, percent inhibition of NO production by the test compound was measured. The test compound was dissolved in N,N-dimethylformamide to 10 mM and diluted with RPMI-1640 medium to 0.1 mM. Furthermore, it was prepared with a medium to make a final concentration from 10 μM to 10 nM by diluting 10-fold, and added to the culture. The day before the experiment, the cells were prepared with RPMI-1640 medium supplemented with heat-inactivated 10% fetal calf serum to a concentration of 5×10^5 cells/ml and plated to a 96-well plate by 1×10^5 cells/0.2 ml per well. After culturing at 37° C. under 5% CO2/95% air overnight, the medium was changed to RPMI-1640 medium supplemented with heat-inactivated 1% fetal calf serum. Thereto was added the prepared test compound, and LPS and interferon-γ were added to a final concentrations of 5 ng/ml and 1 U/ml, respectively. After incubation overnight, the concentration of nitrite ion (stable metabolite of NO) in the culture supernatant was measured and used as an index of NO production. The nitrite concentration was quantitatively measured by adding 20 μg/ml 2,3-diaminonaphtalene (DAN) by 25 μl to the culture supernatant (50 μl), incubating at room temperature for 10 min, adding 0.5N NaOH (25 μl) and measuring the fluorescence at 450 nm (excitation wavelength 365 nm).

[3] = tested on: IL-1β production by human monocyte cell line P31/FUJ; experiment: Inhibitory activity on IL-1β production in P31/FUJ cells; type: cell-based; conditions: PMA pretreated, LPS 100 ng/ml + interferon-γ 10 U/ml, overnight
Experimental: as §1

blood NOx concentration = experiment: Effect against increase in blood nitrogen oxide concentration in LPS-treated mice; type: in vivo, mouse; conditions: female BALB/c mice, 10 mg/kg orally 1 h before LPS 10 mg/kg i.p., sera at 6 h after LPS, relative to control group
Text: When a biological defense response against infection and the like, immunopathy and the like causes NO production in the body, it is quickly metabolized into nitrous acid and nitric acid, whereby blood nitrogen oxide concentration (NOx) increases. Using test animals, the effect of the test compound against increase in blood NOx concentration was examined.
Female BALB/c mice (7-week-old) were divided into 6–8 mice per group. For the test compound group, the test compound was suspended in 0.5% aqueous methylcellulose solution and 10 mg/kg thereof was orally administered. For the control group, a solvent was similarly administered. One hour later, LPS (10 mg/kg) was intraperitoneally administered to the test compound group and the control group. At 6 h after LPS administration, blood was drawn and nitrate ion+nitrite ion concentration in sera was measured. The nitrate ion was converted to nitrous acid ion with nitrate reductase and quantitatively measured as a total nitrite ion concentration by fluorescence method using the aforementioned DAN.

[4] = Mus musculus, RAW264.7, RAW264.7 cells

SMILES	IC50 ([2]; RAW264.7 cells) [µM]	IC50 [2, 4] [µM]	further results
CCOC(=O)C1=CCCCC1S(=O)(=O)Cc1ccc(F)cc1Cl (stereo not shown) [Compound 4, ethyl 6-[(2-chloro-4-fluorobenzyl)-sulfonyl]-1-cyclohexene-1-carboxylate]	0.029	–	IC50 ([1]; Homo sapiens, P31-FUJ): 0.2 µM; IC50 [3]: 0.58 µM; Blood NOx inhibition (%) (blood NOx concentration): 62%
CCOC(=O)C1=CCCCC1S(=O)(=O)Cc1ccc(F)cc1Cl (stereo not drawn) [Compound 6, ethyl (+)-6-[(2-chloro-4-fluorobenzyl)sulfonyl]-1-cyclohexene-1-carboxylate]	0.0093	–	IC50 [1]: 0.15 µM; IC50 [3]: 0.23 µM
CCOC(=O)C1=CCOCC1S(=O)(=O)Nc1ccc(F)cc1Cl (stereo not shown) [Compound 8, ethyl 3-[(2-chloro-4-fluorophenyl)sulfamoyl]-3,6-dihydro-2H-pyran-4-carboxylate]	–	0.0031	IC50 ([1]; Homo sapiens, P31-FUJ): 0.02 µM; IC50 ([3]; Homo sapiens, P31-FUJ): 0.011 µM; Blood NOx inhibition (%) (blood NOx concentration): 80%
CCOC(=O)C1=CCCCC1S(=O)(=O)Cc1ccc(F)cc1F (stereo not shown) [Compound 3, ethyl 6-[(2,4-difluorobenzyl)sulfonyl]-1-cyclohexene-1-carboxylate]	–	0.047	–
CCOC(=O)C1=CCOCC1S(=O)(=O)Nc1ccc(F)cc1F (stereo not shown) [Compound 7, ethyl 3-[(2,4-difluorophenyl)-sulfamoyl]-3,6-dihydro-2H-pyran-4-carboxylate]	–	0.018	–
CCOC(=O)C1=CCCCC1S(=O)(=O)Cc1ccc(OC)cc1 (stereo not shown) [Compound 2, ethyl 6-[(4-methoxybenzyl)sulfonyl]-1-cyclohexene-1-carboxylate]	–	3.2	–
CCOC(=O)C1=CCCCC1S(=O)(=O)Cc1ccc(F)cc1Cl (stereo not drawn) [Compound 5, ethyl (−)-6-[(2-chloro-4-fluorobenzyl)sulfonyl]-1-cyclohexene-1-carboxylate]	1	–	–
CCOC(=O)C1=CCCCC1S(=O)(=O)Cc1ccccc1 (stereo not shown) [Compound 1, ethyl 6-(benzylsulfonyl)-1-cyclohexene-1-carboxylate]	–	0.24	–
